Consider eight molecules from publication PMC12257394, “Design, Synthesis, and Biological Evaluation of Ferrocenyl–Cyclo-(Gly‑L‑Pro) Hybrids Sensitizing Multidrug-Resistant Cancer Cells to Anticancer Agents” (ACS Medicinal Chemistry Letters, 2025).

For data set [1], the system named is ABCG2-overexpressing SW620Mito cells. Briefly: MDR reversal assay (ERP), SW620Mito. The data set is classed as cell-based, human. Particulars: Homo sapiens; SW620Mito, drug alone, n = 3. The source says:
(§1) We investigated the potency of 4a–e to inhibit ABC transporters (ABCB1, ABCC1, and ABCG2) by determining their enhancement of reversal potency (ERP) values. ERP represents fold changes in the IC50 values of anticancer drugs in multidrug-resistant cancer sublines (ABCB1-overexpressing SW620D, SW620E, and SW620V; ABCC1-overexpressing SW620M; ABCG2-overexpressing SW620C and SW620Mito) exposed to a combination of the investigated compounds and anticancer agents at equimolar concentrations, compared with values obtained with drugs alone (Tables S2 and S3 and Figure ).
(§2) Standards. Multidrug-resistant variants of SW620 cells were developed in our laboratory as described previously.10, 11 All cells were cultured under standard conditions (37°C, 5% CO2, 100% humidity) in high-glucose DMEM supplemented with GlutaMaxTM, HEPES (ThermoFisher Scientific, USA), and 10% fetal bovine serum (EURx, Poland). Cells were routinely tested for potential Mycoplasma contamination using the MycoProbe Mycoplasma Detection kit (R&D System, USA).
(§3) In total, 104 cells in 100 µL of complete medium were plated per well of a 96-well plate and left overnight to allow cells to adhere to the surface. Then, the cells were exposed to a desired concentration of tested compound(s). Stock solutions were prepared in DMSO and used immediately. The final DMSO concentration was constant and nontoxic (0.1% v/v). After 70-h incubation, neutral red was added to the final concentration of 1 mM. After another 2 h, the medium was aspirated, and cells were washed twice with PBS. Dye was released using 100 µL of a solubilizer (1% acetic acid in 50% ethanol) on an orbital shaker (10 min). Absorbance was read at 540 nm using EnVision Multilabel Plate Reader (Perkin Elmer, USA). Results were expressed as % of control. The IC50 parameters were calculated using GraphPad Prism version 10 (GraphPad Software, Boston, Massachusetts USA).
(§4) The enhancement of reversal potency (ERP) value determination
(§5) For MDR reversal assays, cytotoxic agents were co-administered with compounds 4a–4e at equimolar concentrations in a range of 10 nM to 100 µM. IC₅₀ values were determined in ABCB1-overexpressing SW620 cell line variants. The enhancement of reversal potency (ERP) was calculated using the following formula: ERP = IC₅₀(drug)MDR / IC₅₀(drug + compound)MDR. All experiments were performed in triplicate (n = 3).

In data set [2] the test system is SW620Mito cells (mitoxantrone-resistant). Briefly: Neutral red uptake viability assay, SW620Mito. Particulars: Homo sapiens, substance alone (xlsx), read-out: SW620Mito IC50. The data set is classed as cell-based, human. How it is done: (§6) In general, compounds 4a–e exerted little or no cytotoxic effect on either SW620 or multidrug-resistant sublines even at 10 μM, with the remarkable exception of SW620C (cisplatin-selected variant of SW620) cells, which turned out to be relatively susceptible toward ferrocenyl 4a–c. […] This trend may reflect steric or electronic contributions to cellular uptake or interaction with intracellular targets. […] However, since E/Z isomeric data are currently available only for compound 4c, this hypothesis requires validation. To quantify this effect, IC50 values were determined (Table ). […]
(§7) The normal lung fibroblast MRC-5 and colorectal adenocarcinoma SW620 cell lines used in this experiment were purchased from American Type Culture Collection (USA) via LGC […]
as §2
as §3, with “Massachusetts USA). […]” for “Massachusetts USA).”
(§8) All experiments were performed in triplicate (n = 3).

Data set [3] concerns SW620 cells. The data set can be described thus: MDR reversal assay (coadministration with anticancer drug), SW620. In kind it is cell-based, human. The following applies: SW620, drug alone, n = 3.
Text: as §1, §2, §3, §4, §5

Data set [4] deals with SW620 cells. The data set can be described thus: Neutral red uptake viability assay, SW620. The data set is classed as cell-based, human. Particulars: SW620, substance alone (xlsx), read-out: SW620 IC50. Here is the method: as §6, with “To evaluate this aspect, we investigated the viability of SW620 colon cancer cells and their multidrug-resistant variants (overexpressing ABCB1, ABCC1, and ABCG2) exposed to 1 and 10 μM 4a–e using a neutral red uptake assay (Table ). In” for “In”
as §7, §2
as §3, with “Massachusetts USA). […]” for “Massachusetts USA).”
as §8

Data set [5] has as its system SW620M cells (methotrexate-resistant). The data set can be described thus: Neutral red uptake viability assay, SW620M. The data set is classed as cell-based, human. Particulars: Homo sapiens, substance alone (xlsx), read-out: SW620M IC50. How it is done: as §6, §7, §2
as §3, with “Massachusetts USA). […]” for “Massachusetts USA).”
as §8

Data set [6] has as its system ABCC1-overexpressing SW620M cells. Briefly: MDR reversal assay (ERP), SW620M. The data set is classed as cell-based, human. The following applies: Homo sapiens; SW620M, drug alone, n = 3.
Text: as §1, §2, §3, §4, §5

Data set [7] relates to ABCB1-overexpressing SW620E cells. The data set can be described thus: MDR reversal assay (ERP), SW620E. The following applies: Homo sapiens; SW620E, drug alone, n = 3. The data set is classed as cell-based, human.
Text: as §1, §2, §3, §4, §5

The subject of data set [8] is SW620E cells (etoposide-resistant). Briefly: Neutral red uptake viability assay, SW620E. The data set is classed as cell-based, human. The following applies: Homo sapiens, substance alone (xlsx), read-out: SW620E IC50. How it is done: as §6, with “To evaluate this aspect, we investigated the viability of SW620 colon cancer cells and their multidrug-resistant variants (overexpressing ABCB1, ABCC1, and ABCG2) exposed to 1 and 10 μM 4a–e using a neutral red uptake assay (Table ). In” for “In”
as §7, §2
as §3, with “Massachusetts USA). […]” for “Massachusetts USA).”
as §8

In data set [9] the test system is ABCG2-overexpressing SW620C cells. The data set can be described thus: MDR reversal assay (ERP), SW620C. The data set is classed as cell-based, human. Particulars: SW620C, drug alone, n = 3.
Text: as §1, §2, §3, §4, §5

The subject of the next data set is MRC-5 fibroblasts. The data set can be described thus: Neutral red uptake viability assay, MRC-5. The data set is classed as cell-based, human. The following applies: MRC-5, 10 μM, 72 h exposure, n = 3, ± SD. Here is the method:
as §7, §2
as §3, with “Massachusetts USA). […]” for “Massachusetts USA).”
as §8

Data set [10] concerns ABCB1-overexpressing SW620V cells. The data set can be described thus: MDR reversal assay (ERP), SW620V. In kind it is cell-based, human. The following applies: Homo sapiens; SW620V, drug alone, n = 3.
Text: as §1, §2, §3, §4, §5

Data set [11] has as its system SW620V cells (vincristine-resistant). The data set can be described thus: Neutral red uptake viability assay, SW620V. The data set is classed as cell-based, human. The following applies: Homo sapiens, substance alone (xlsx), read-out: SW620V IC50. How it is done:
as §6, §7, §2, §3, §4, §5

Data set [12] concerns SW620D cells (doxorubicin-resistant). The data set can be described thus: Neutral red uptake viability assay, SW620D. In kind it is cell-based, human. The following applies: Homo sapiens, substance alone (xlsx), read-out: SW620D IC50. How it is done: as §6, §7, §2, §3, §4, §5
Data set [13] relates to ABC-overexpressing cancer cells. On the set-up: method as in PMID 27326336. Particulars: earlier finding; citation mark lost in the text, probably ref 20; cited from earlier work.

One may read the IC50 as the concentration that inhibits the measured activity by half. Consider `O=C1c2c(O)ccc(O)c2C(=O)c2c(NCCNCCO)ccc(NCCNCCO)c21` [Mitoxantrone, reference compound], for which the IC50 in [1] amounted to 6.36 µM; in data set [2], 6.36 µM; in the data set on SW620 cells [3] (Homo sapiens, SW-620), 0.151 µM; in the data set on SW620 cells [4] (Homo sapiens, SW-620), 0.151 µM.
In the case of `CN(Cc1cnc2nc(N)nc(N)c2n1)c1ccc(C(=O)N[C@@H](CCC(=O)O)C(=O)O)cc1` [Methotrexate, reference compound], the IC50 in data set [5] was found to be 54.1 µM; with SW620 cells [3] (Homo sapiens, SW-620), 6.28 µM; in the data set with SW620 cells [4] (Homo sapiens, SW-620) it was 6.28 µM; in data set [6] it was 54.1 µM.
`COc1cc([C@@H]2c3cc4c(cc3[C@@H](O[C@@H]3O[C@@H]5CO[C@@H](C)O[C@H]5[C@H](O)[C@H]3O)[C@H]3COC(=O)[C@H]23)OCO4)cc(OC)c1O` [Etoposide, reference compound]: the IC50 in data set [7] came out at 16 µM; in data set [8] it was 16 µM; in the data set with SW620 cells [3] (Homo sapiens, SW-620) it was 2.6 µM; with SW620 cells [4] (Homo sapiens, SW-620), 2.6 µM.
With `N.N.[Cl][Pt][Cl]` [Cisplatin, reference compound], the IC50 in data set [9] was found to be 27.9 µM; in the data set with SW620 cells [3] it was 4.34 µM; in the data set with SW620 cells [4], 4.34 µM.
The molecule `COc1ccc2c(C[C@@H]3NC(=O)[C@@H]4CCCN4C3=O)c(CC=C(C)C)[nH]c2c1` [TrpA, tryprostatin A, reference compound] had a survival rate in the data set on MRC-5 fibroblasts of 97 ± 11%.
Turning to `CC[C@]1(O)C[C@H]2CN(CCc3c([nH]c4ccccc34)[C@@](C(=O)OC)(c3cc4c(cc3OC)N(C=O)[C@H]3[C@@](O)(C(=O)OC)[C@H](OC(C)=O)[C@]5(CC)C=CCN6CC[C@]43[C@@H]65)C2)C1` [Vincristine, reference compound], the IC50 in [10] amounted to 24.3 µM; in the data set on SW620 cells [3] (Homo sapiens, SW-620), 0.125 µM; in the data set with SW620 cells [4] (Homo sapiens, SW-620), 0.125 µM; in data set [11] it was 24.3 µM.
In the case of `COc1cccc2c1C(=O)c1c(O)c3c(c(O)c1C2=O)C[C@@](O)(C(=O)CO)C[C@@H]3O[C@H]1C[C@H](N)[C@H](O)[C@H](C)O1` [Doxorubicin, reference compound], the IC50 in the data set on SW620 cells [3] (Homo sapiens, SW-620) was 0.342 µM; in [12], 4.26 µM; in the data set on SW620 cells [4] (Homo sapiens, SW-620) it was 0.342 µM.
On to `CC(C)(C)c1[nH]cnc1/C=c1\[nH]c(=O)/c(=C/c2ccccc2)[nH]c1=O` [plinabulin], for which, in data set [13], the “activity against ABC-overexpressing cancer cells” value was “inactive”.
